# In paper PMC8293625, “HLA class-I-peptide stability mediates CD8^+ T cell immunodominance hierarchies and facilitates HLA-associated immune control of HIV” (Cell Reports, 2021):
# Read-outs that look alike come from different tables or passages of the source.
# Columns and labels:
# [1] = molecular target: HLA-A*0301 (Homo sapiens, UniProt P04439); experiment: Cell-based HLA class I-peptide concentration-based stability assay (TAP-deficient mono-allelic 721.221 cells); conditions: HLA A*03 mono-allelic TAP-deficient 721.221 cells, relative anti-HLA MFI; for Relative HLA MFI (10 uM): peptide 10 uM; for Relative HLA MFI (100 uM): peptide 100 uM
# Description: (§1) Controls without peptide, but the corresponding concentration of DMSO, were performed in parallel.
# [2] = tested on: HLA class-I alleles A*0101, A*0201, A*0301, A*2402, B*0702, B*0801, B*1402, B*1501, B*2705, B*3501, B*3901, B*4001, B*4402, B*5201, B*5701, B*5801, B*8101 …; format: cell-based, human; conditions: relative anti-HLA MFI; for Relative HLA MFI (10 uM): peptide 10 uM; for Relative HLA MFI (100 uM): peptide 100 uM
# [3] = molecular target: T1, HLA-B*5701 (Homo sapiens, UniProt P01889, D201E/D98Y/E176V/E187L/E204Q/E69M/E70A/G107R/I90N/K202T/L105A/L119I/N104I/N87E/Q89R/Q94S/R106L/R155S/R180L/R86G/S101N/S121V/S35A/S48A/T118I/V36M/Y140S/Y91M); experiment: Cell-based HLA class I-peptide concentration-based stability assay (TAP-deficient mono-allelic 721.221 cells); conditions: for Relative HLA MFI (10 uM) / Relative HLA MFI (100 uM): section B*57, TAP-deficient mono-allelic 721.221 cells, relative anti-HLA MFI; for Relative HLA MFI (10 uM): peptide 10 uM; for Relative HLA MFI (100 uM): peptide 100 uM; for anti-HLA MFI (surface HLA-B*5701): representative (Fig S2B)
# Description: as §1
# [4] = molecular target: HLA-B*0702 (Homo sapiens, UniProt P01889); experiment: as above; conditions: HLA B*07 mono-allelic TAP-deficient 721.221 cells, relative anti-HLA MFI; for Relative HLA MFI (10 uM): peptide 10 uM; for Relative HLA MFI (100 uM): peptide 100 uM
# [5] = molecular target: HLA-B*8101 (Homo sapiens, UniProt P01889, A269T/D138N/E176V/R180L/T167S/W171L); experiment: as above; conditions: relative anti-HLA MFI; for Relative HLA MFI (10 uM): section B*81, peptide 10 uM; for Relative HLA MFI (100 uM): section B*81, peptide 100 uM
# [6] = molecular target: HLA-A*0301 on TAP-deficient mono-allelic 721.221 cells (human | human (endogenous in 721.221)); experiment: flow cytometry on cells
# [7] = molecular target: Soluble HLA-A*0301 monomer (heavy chain and β2-microglobulin); experiment: differential scanning fluorimetry (thermal denaturation)
# [8] = molecular target: T1, HLA-B*5701; experiment: Thermal denaturation (differential scanning fluorimetry) of soluble HLA class I-peptide monomers; format: binding; conditions: DSF, 2 μM pMHC, SYPRO orange; representative, performed twice as technical triplicates (Fig S4B)
# Description: To confirm these observations and further validate the cell-based stability assay, we used an orthogonal approach to evaluate the relationship between HLA class-I-peptide stability and ID by assessing thermal denaturation of soluble HLA class-I-peptide complexes ([Hellman et al., 2016]). In this assay, soluble HLA class-I monomers with bound peptide are incubated in the presence of an environmentally sensitive fluorescent molecule whose fluorescence is enhanced when bound to exposed hydrophobic surfaces during protein unfolding. As a result, the thermal stability (Tm, defined as the temperature at which 50% of the protein is unfolded) of an HLA class-I-peptide complex can be determined by fluorometric measurements during incremental temperature increases, which serve as a proxy for the stabilizing capacity of a bound epitope ([Hellman et al., 2016]).
# This relative difference in Tm between ID and SubD epitopes was also observed for HLA-A^∗02 and HLA-B^∗57 (Figure S4) and collectively was statistically significant (Figure 3C).
# Expression, refold and purification of the soluble constructs of the pMHCs were performed as previously described ([Pierce et al., 2014]). Briefly, the HLA-A^∗02, HLA-A^∗03 and HLA-B^∗57 heavy chains, and β2-microglobulin were expressed in Escherichia coli and purified as inclusion bodies (IBs). The IBs were solubilized in 8M Urea. Target peptides were provided by the MGH Peptide Core. […]
# Differential scanning fluorimetry was performed using a Bio-RAD CFX96 real time PCR system as previously described. Briefly, the excitation and emission wavelengths were set to 587 and 607 nm respectively, and the fluorescence intensity was measured after every 1°C rise in temperature starting from 20°C and going up to 95°C. […] Apparent Tm values were calculated by identifying the point at which the melting transition was 50% complete.
# [9] = HLA A*02 mono-allelic TAP-deficient 721.221 cells
# [10] = HLA B*08 mono-allelic TAP-deficient 721.221 cells
# [11] = HLA B*15 mono-allelic TAP-deficient 721.221 cells
# [12] = HLA B*39 mono-allelic TAP-deficient 721.221 cells
# [13] = HLA B*35 mono-allelic TAP-deficient 721.221 cells
# [14] = section B*58, TAP-deficient mono-allelic 721.221 cells
# [15] = HLA B*40 mono-allelic TAP-deficient 721.221 cells
# [16] = HLA B*27 mono-allelic TAP-deficient 721.221 cells
# HLA-B*8101, sequence (P01889 25-362 D138N/T167S/W171L/E176V/R180L/A269T limits assumed): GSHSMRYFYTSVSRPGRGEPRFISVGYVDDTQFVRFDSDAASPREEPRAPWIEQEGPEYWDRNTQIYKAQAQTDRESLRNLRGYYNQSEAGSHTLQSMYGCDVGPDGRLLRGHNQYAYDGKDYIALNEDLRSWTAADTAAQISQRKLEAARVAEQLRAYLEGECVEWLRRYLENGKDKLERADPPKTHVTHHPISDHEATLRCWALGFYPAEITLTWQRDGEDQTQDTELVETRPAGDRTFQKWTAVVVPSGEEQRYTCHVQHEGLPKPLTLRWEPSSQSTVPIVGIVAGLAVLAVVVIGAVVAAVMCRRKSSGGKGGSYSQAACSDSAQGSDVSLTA
substance,measurement,setting,value
AIFQSSMTK [ATK9],Relative HLA MFI (10 uM),[1],0.3479
same,Relative HLA MFI (100 uM),[1],0.6619
AIIRILQQL [AL9],Relative HLA MFI (10 uM),[2]; [9],0.2439
same,Relative HLA MFI (100 uM),[2]; [9],0.5341
same,Relative HLA MFI (10 uM),[3],0
same,Relative HLA MFI (100 uM),[3],0.004343
AVDLSHFLK [ALK9],Relative HLA MFI (10 uM),[1],0.274
same,Relative HLA MFI (100 uM),[1],0.7814
AVFIHNFKRK [AK10],Relative HLA MFI (10 uM),[1],0.265
same,Relative HLA MFI (100 uM),[1],1
ERILSTYLGR [ER10],Relative HLA MFI (10 uM),[1],0.09869
same,Relative HLA MFI (100 uM),[1],0.5827
FPRIWLHGL [FL9 (Vpr)],Relative HLA MFI (10 uM),[4],0.2812
same,Relative HLA MFI (100 uM),[4],0.7264
FPRIWLHGL [FL9],Relative HLA MFI (10 uM),[5],0.69
same,Relative HLA MFI (100 uM),[5],1
FPVTPQVPL [FL9 (Nef)],Relative HLA MFI (10 uM),[4],0.348
same,Relative HLA MFI (100 uM),[4],0.9848
FPVTPQVPLR [FR10],Relative HLA MFI (10 uM),[4],0.1079
same,Relative HLA MFI (100 uM),[4],0.5897
GAFDLSFFL [GL9],Relative HLA MFI (10 uM),[2]; [9],0.2773
same,Relative HLA MFI (100 uM),[2]; [9],0.6097
same,Relative HLA MFI (10 uM),[2]; [10],0.3886
same,Relative HLA MFI (100 uM),[2]; [10],0.8634
same,Relative HLA MFI (10 uM),[2]; [11],0.06703
same,Relative HLA MFI (100 uM),[2]; [11],0.1423
same,Relative HLA MFI (10 uM),[2]; [12],0.6524
same,Relative HLA MFI (100 uM),[2]; [12],1
same,Relative HLA MFI (10 uM),[4],0.1155
same,Relative HLA MFI (100 uM),[4],0.2918
"HIV A*03-restricted RK9 epitope ([…], Gag p17 20-28) (peptide)",percent stable HLA-peptide complexes on the surface after 4 h at 37°C with BFA,[6],40%
same,Tm of the HLA-peptide complex,[7],53 °C
HMYISKKAK [HK9],Relative HLA MFI (10 uM),[1],0.2644
same,Relative HLA MFI (100 uM),[1],0.8145
HPRVSSEVHI [HI10],Relative HLA MFI (10 uM),[4],0.007599
same,Relative HLA MFI (100 uM),[4],0.6565
HPVHAGPIA [HA9],Relative HLA MFI (10 uM),[2]; [13],0.57
same,Relative HLA MFI (100 uM),[2]; [13],0.8723
same,Relative HLA MFI (10 uM),[4],0.3541
same,Relative HLA MFI (100 uM),[4],0.8359
HTQGYFPDW [HW9],thermal stability (Tm) of HLA-B*5701-peptide complex,[8],57 °C
same,Relative HLA MFI (10 uM),[2]; [14],0.6285
same,Relative HLA MFI (100 uM),[2]; [14],1
same,Relative HLA MFI (10 uM),[3],0.3192
same,Relative HLA MFI (100 uM),[3],0.6623
IPRRIRQGL [IL9],Relative HLA MFI (10 uM),[2]; [13],0.6542
same,Relative HLA MFI (100 uM),[2]; [13],0.68
same,Relative HLA MFI (10 uM),[2]; [15],0.518
same,Relative HLA MFI (100 uM),[2]; [15],0.8038
same,Relative HLA MFI (10 uM),[4],0.3754
same,Relative HLA MFI (100 uM),[4],1
ISKKAKGWF [IF9],Relative HLA MFI (10 uM),[3],0.4093
same,Relative HLA MFI (100 uM),[3],0.557
IVLPEKDSW [IW9 (RT)],Relative HLA MFI (10 uM),[3],0.4821
same,Relative HLA MFI (100 uM),[3],0.7481
KAFSPEVI [KI8],Relative HLA MFI (10 uM),[3],0.06623
same,Relative HLA MFI (100 uM),[3],0.2215
KAFSPEVIPMF [KF11],thermal stability (Tm) of HLA-B*5701-peptide complex,[8],57 °C
same,anti-HLA MFI (surface HLA-B*5701),[3]; absence of β2m,426
same,anti-HLA MFI (surface HLA-B*5701),[3]; presence of β2m (3 µg/mL),565
same,Relative HLA MFI (10 uM),[3],0.2215
same,Relative HLA MFI (100 uM),[3],0.5689
KAIGTVLV [KV8],Relative HLA MFI (10 uM),[3],0.05212
same,Relative HLA MFI (100 uM),[3],0
KTKPPLPSVKK [KK11],Relative HLA MFI (10 uM),[1],0.3455
same,Relative HLA MFI (100 uM),[1],0.9676
LGHGVSIEW [LW9],Relative HLA MFI (10 uM),[3],0
same,Relative HLA MFI (100 uM),[3],0.005429
LRPMTYKAA [LA9],Relative HLA MFI (10 uM),[5],0.0372
same,Relative HLA MFI (100 uM),[5],0.09141
same,Relative HLA MFI (10 uM),[2]; [16],0.09012
same,Relative HLA MFI (100 uM),[2]; [16],0.09773
LTFGWCFKL [LL9],Relative HLA MFI (10 uM),[3],0
same,Relative HLA MFI (100 uM),[3],0
QAVRIIKILY [QY10],Relative HLA MFI (10 uM),[3],0
same,Relative HLA MFI (100 uM),[3],0
RGPGRAFVTI [RI10],Relative HLA MFI (10 uM),[2]; [9],0.001172
same,Relative HLA MFI (100 uM),[2]; [9],0.4741
same,Relative HLA MFI (10 uM),[2]; [16],0.4976
same,Relative HLA MFI (100 uM),[2]; [16],0.7237
same,Relative HLA MFI (10 uM),[4],0.02584
same,Relative HLA MFI (100 uM),[4],0.4954
RIRTWKSLVK [RK10],Relative HLA MFI (10 uM),[1],0.3155
same,Relative HLA MFI (100 uM),[1],0.8607
RLRDLLLIVTR [RR11],Relative HLA MFI (10 uM),[1],0
same,Relative HLA MFI (100 uM),[1],0.02843
RPAEPVPLQL [RL10],Relative HLA MFI (10 uM),[4],0.196
same,Relative HLA MFI (100 uM),[4],0.848
SPAIFQSSM [SM9],Relative HLA MFI (10 uM),[4],0
same,Relative HLA MFI (100 uM),[4],0.1337
SPRTLNAWV [SV9],Relative HLA MFI (10 uM),[4],0
same,Relative HLA MFI (100 uM),[4],0.114
STTVKAACWW [SW10],Relative HLA MFI (10 uM),[3],0.3518
same,Relative HLA MFI (100 uM),[3],0.4995
TPGPGVRYPL [TL10],Relative HLA MFI (10 uM),[4],0
same,Relative HLA MFI (100 uM),[4],0.1231
TPVNIIGRNML [TL11],Relative HLA MFI (10 uM),[5],0.7114
same,Relative HLA MFI (100 uM),[5],0.9995
YTPGPGIRY [YY9],Relative HLA MFI (10 uM),[3],0
same,Relative HLA MFI (100 uM),[3],0
